Experimental data: PMC6321301, “Phenolic Composition, Antioxidant Properties, and Inhibition toward Digestive Enzymes with Molecular Docking Analysis of Different Fractions from Prinsepia utilis Royle Fruits” (Molecules, 2018)
Like-named read-outs stand apart in the source and are kept apart here. Each block holds one compound with its values, some of them ahead of it.

How the values were obtained:
[1] = target: T1, porcine pancreatic lipase (Sus scrofa, UniProt P00591); assay: Pancreatic lipase inhibition; type: biochemical; conditions: mean ± SD, n = 3
T1 construct: purchased Sigma (Sigma-Aldrich, Shanghai, China); host or cells: porcine pancreas (natural source)
T1 sequence (P00591 1-450): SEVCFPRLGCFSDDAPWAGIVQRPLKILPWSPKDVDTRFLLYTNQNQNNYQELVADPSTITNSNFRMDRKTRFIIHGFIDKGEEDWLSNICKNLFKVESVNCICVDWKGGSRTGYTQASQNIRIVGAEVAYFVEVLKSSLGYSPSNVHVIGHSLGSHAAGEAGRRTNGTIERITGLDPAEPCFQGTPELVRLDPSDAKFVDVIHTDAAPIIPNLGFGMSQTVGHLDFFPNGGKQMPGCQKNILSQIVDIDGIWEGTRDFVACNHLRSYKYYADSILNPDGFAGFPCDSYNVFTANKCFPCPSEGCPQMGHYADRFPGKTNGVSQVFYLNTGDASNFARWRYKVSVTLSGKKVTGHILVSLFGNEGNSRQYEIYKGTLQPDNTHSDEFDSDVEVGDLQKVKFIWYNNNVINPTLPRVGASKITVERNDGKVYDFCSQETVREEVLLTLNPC
Experimental: (§1) Methanol, acetonitrile, formic acid, and Folin–Ciocalteu reagent were purchased from Merck (Darmstadt, Germany). […] All of the other reagents that were used were of analytical grade.
The inhibitory effects of different fractions from P. utilis fruits, rutin, isorhamnetin-3-O-glucoside, and cyanidin-3-O-glucoside against pancreatic lipase activity were measured according to the method reported earlier. The absorbance (OD) was measured at 400 nm by using a SpectraMax M5 microplate reader. Each test was measured three times.

[2] = target: T2, α-glucosidase from Saccharomyces cerevisiae (Saccharomyces cerevisiae, UniProt P53341); assay: α-Glucosidase inhibition; type: biochemical
T2 construct: purchased Sigma (Sigma-Aldrich, Shanghai, China); host or cells: Saccharomyces cerevisiae (natural source, as named)
Experimental: as §1
The α-glucosidase inhibition activities of different fractions from P. utilis fruits, rutin, and isorhamnetin-3-O-glucoside were evaluated as previously described with some modifications. The absorbance (OD) of the each reaction mixture at 405 nm was recorded by using a SpectraMax M5 microplate reader (Molecular Device, Sunnyvale, CA, USA).

[3] = cited from earlier work
[4] = cited from earlier work; remark: listed apart in the source
[5] = DPPH radical scavenging assay; conditions: mean ± SD, n = 3
Experimental: The current result was consistent with many previous studies. Huang et al. reported that the phenolic compounds in P. utilis seeds were responsible for their DPPH radical scavenging activities, regardless of different pretreatments. Zhang et al. also considered phenolics to be the main bioactive substances in Rhus chinensis Mill. fruits to scavenge DPPH radicals.
The antioxidant activities of all of the fractions from P. utilis fruits were determined by DPPH assay according to the methods described earlier. The absorbance of the reaction mixture was recorded by a SpectraMax M5 microplate reader (Molecular Device, Sunnyvale, CA, USA) at 517 nm. The DPPH radical scavenging activity (%) was calculated as [(ODcontrol − ODsample)/ODcontrol] × 100. Each test was measured in triplicate.

[6] = ABTS radical scavenging assay; conditions: mean ± SD, n = 3
Excerpt: Phenolic compounds in P. utilis fruits may be also in charge of the ABTS scavenging capacities, which were confirmed by a high Pearson’s correlation coefficient between the phenolic contents and ABTS radical scavenging ratio (r = 0.889, p < 0.01). Some discrepancies between the IC50 values of DPPH and ABTS assays of the same fraction from P. utilis fruits were observed, which may be due to the different radical structure. Many previous studies also found a similar phenomenon when the DPPH results were compared with the ABTS findings.
The antioxidant activities of all of the fractions from P. utilis fruits were measured by ABTS assay as described earlier. The absorbance of the reaction mixture was determined with a SpectraMax M5 microplate reader at 745 nm. The ABTS radical scavenging activity (%) of each sample was calculated as [(ODcontrol − ODsample)/ODcontrol] × 100. Each test was measured three times.

H2O2-induced HepG2 cells = assay: Inhibition of intracellular ROS in H2O2-induced HepG2 cells (DCFH-DA, flow cytometry); type: cell-based; conditions: 8.0 μg/mL, positive control; p < 0.05
Experimental: HepG2 cells were supplied by Kunming cell bank, Chinese Academy of Sciences (Kunming, China), which were cultured in normal Dulbecco’s Modified Eagle Medium (DMEM) medium containing 10% fetal bovine serum (FBS), 1% antibiotic mixture of streptomycin (100 mg/mL) and penicillin (100 U/mL) at 37 °C with a humidified 5% CO2 atmosphere. […] Briefly, cells were seeded on six-well plates at 2.0 × 10^5 cells per well, and incubated for 24 h. […] Then, cells were harvested and washed twice with phosphate buffer solution (PBS). The cells of all of the groups were incubated with 10 μM of DCFH-DA for 20 min, and washed with serum-free medium to remove excess DCFH-DA by centrifuging at 156× g for five minutes. Subsequently, the intracellular ROS of each group was measured by flow cytometry with guava® easyCyte 6-2L (Millipore, Billerica, MA, USA) within 45 min. All of the experiments were measured in triplicate.

α-glucosidase = conditions: cited from earlier work

T2 sequence (P53341 whole entry): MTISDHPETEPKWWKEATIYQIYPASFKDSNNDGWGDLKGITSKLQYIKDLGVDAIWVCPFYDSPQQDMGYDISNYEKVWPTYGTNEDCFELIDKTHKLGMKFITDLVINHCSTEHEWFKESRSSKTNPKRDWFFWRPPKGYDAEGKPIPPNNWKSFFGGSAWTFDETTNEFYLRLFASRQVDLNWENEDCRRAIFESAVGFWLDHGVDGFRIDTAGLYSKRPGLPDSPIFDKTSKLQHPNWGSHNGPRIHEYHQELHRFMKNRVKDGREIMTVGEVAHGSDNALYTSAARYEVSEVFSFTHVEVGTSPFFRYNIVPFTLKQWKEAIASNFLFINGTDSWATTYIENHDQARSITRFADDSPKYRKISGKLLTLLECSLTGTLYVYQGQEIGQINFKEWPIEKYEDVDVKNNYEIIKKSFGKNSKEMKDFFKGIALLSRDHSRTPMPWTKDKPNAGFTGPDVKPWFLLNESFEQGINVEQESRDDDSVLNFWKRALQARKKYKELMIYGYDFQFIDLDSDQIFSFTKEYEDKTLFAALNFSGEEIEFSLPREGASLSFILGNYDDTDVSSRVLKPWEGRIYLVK

pancreatic lipase inhibition IC50 [1]: 249.20 ± 3.87 µg/mL
SMILES: OC[C@H]1O[C@@H](Oc2cc3c(O)cc(O)cc3[o+]c2-c2ccc(O)c(O)c2)[C@H](O)[C@@H](O)[C@@H]1O [Cyanidin-3-O-glucoside]

SMILES: COc1cc(-c2oc3cc(O)cc(O)c3c(=O)c2O[C@@H]2O[C@H](CO[C@@H]3O[C@@H](C)[C@H](O)[C@@H](O)[C@H]3O)[C@@H](O)[C@H](O)[C@H]2O)ccc1O [Isorhamnetin-3-O-rutinoside]
pancreatic lipase inhibition IC50 [1]: 237.87 ± 8.20 µg/mL
α-glucosidase inhibition IC50 ([2]; mean ± SD, n = 3): 90.19 ± 3.27 µg/mL

SMILES: C[C@@H]1O[C@@H](OC[C@H]2O[C@@H](Oc3c(-c4ccc(O)c(O)c4)oc4cc(O)cc(O)c4c3=O)[C@H](O)[C@@H](O)[C@@H]2O)[C@H](O)[C@H](O)[C@H]1O [Rutin]
IC50 [1]: 289 µM
IC50 [2]: 208 µM
DPPH radical scavenging IC50 [3]: 29.63 µg/mL
ABTS radical scavenging IC50 [4]: 5.34 µg/mL

DPPH radical scavenging IC50 [5]: 2.32 ± 0.11 µg/mL
ABTS radical scavenging IC50 [6]: 1.92 ± 0.21 µg/mL
SMILES: O=C1O[C@H]([C@@H](O)CO)C(O)=C1O [Vc, ascorbic acid]
intracellular ROS generation (H2O2-induced HepG2 cells): significantly inhibited intracellular ROS generation

SMILES: O=C(O[C@@H]1Cc2c(O)cc(O)cc2O[C@H]1c1cc(O)c(O)c(O)c1)c1cc(O)c(O)c(O)c1 [gallocatechin gallate]
manner of α-glucosidase inhibition (α-glucosidase): noncompetitive
α-glucosidase inhibition IC50 (α-glucosidase): 30.02 µg/mL

SMILES: O=C(CCc1ccc(O)cc1)c1c(O)cc(O)cc1O [phloretin]
α-glucosidase inhibition IC50 (α-glucosidase): 31.26 µg/mL
manner of α-glucosidase inhibition (α-glucosidase; reversible): mixed-type
